In patent publication US20040223967A1, “Blood coagulation factor-activating protein and antibody thereto” (RIKEN, priority 2000, published 2004):
“And” between values parts separate entries of the source, which are not always exact repeats. Equal entries are not always repeated. Where two headings read alike, the source gives them in different places.

T1: F-IX-activating enzyme (Homo sapiens, UniProt P08246)
T1 construct: 1-219; from tissue; host or cells: erythrocyte membranes (crude surfactant extract)
T1 sequence (P08246 30-248): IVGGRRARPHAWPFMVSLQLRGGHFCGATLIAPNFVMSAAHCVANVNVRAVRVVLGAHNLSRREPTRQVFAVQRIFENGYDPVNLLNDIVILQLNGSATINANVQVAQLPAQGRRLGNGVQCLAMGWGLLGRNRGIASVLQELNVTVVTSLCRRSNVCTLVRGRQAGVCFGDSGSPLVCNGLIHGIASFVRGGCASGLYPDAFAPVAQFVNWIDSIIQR

T2: factor IX-activating protein (erythrocyte membrane extract) (Homo sapiens, UniProt P08246)
T2 construct: 1-219; from tissue; host or cells: erythrocyte membranes (surfactant extract / chromatography fractions)
T2 sequence (P08246 30-248): T1 sequence (P08246 30-248)

B1: soybean trypsin inhibitor (protein)
chain: DFVLDNEGNPLENGGTYYILSDITAFGGIRAAPTGNERCPLTVVQSRNELDKGIGTIISSPYRIRFIAEGHPLSLKFDSFAVIMLCVGIPTEWSVVEDLPEGPAVKIGENKDAMDGWFRLERVSDDEFNNYKLVFCPQQAEDDKCGDIGISIDHDDGTRRLVVSKNKPLVVQFQKLDKESL

Experiments:
[1] = target: T1, F-IX-activating enzyme; assay: Assay of inhibitor effect: fluorogenic substrate Suc(OMe)-Ala-Ala-Pro-Val-MCA with crude enzyme extract; assay type: biochemical
Procedure: Relative activity of the enzyme is a ratio of the fluorogenic intensity of the mixture of a fluorogenic synthetic substrate (Suc(OME)-Ala-Ala-Pro-Val-MCA), specific for elastase, the enzyme and inhibitor or antibody to that of the mixture of the fluorogenic substrate and enzyme not containing inhibitor or antibody (control).
To measure the fluorescence intensity of a mixture of inhibitor and the enzyme or elastase, 3 μl of 2 mM fluorogenic synthetic substrate, 2 μl of the enzyme or elastase (concentration: 0.5 mU) and inhibitor or antibody were added to 190 μl HEPES buffer. After incubating the mixture for 30 min at 37° C., 100 μl of the incubated mixture was added to 2 ml of HEPES buffer and the fluorescence intensity was measured using a fluorescence spectrophotometer at λex=380 nm and λem=460 nm.
In the experiments, a crude extract with enzymatic activity, before subjecting to anion-exchange chromatography, was used.

[2] = target: T2, factor IX-activating protein (erythrocyte membrane extract); assay: Activation of factor IX by the erythrocyte membrane extract, examined by SDS-PAGE; assay type: biochemical; conditions: inhibitor added to solution containing the extract
Procedure: 25 μg of pure factor IX (Enzyme Res. Lab.) was dissolved in 50 μl of HEPES buffer, and was mixed with washed erythrocytes (hematocrit: about 40%). 10 μl of 26 mM CaCl2 was added to the suspension, and the mixture was incubated at 37° C. for 30 minutes, and then 30 μl of 0.1 M EDTA was added to the suspension to stop the reaction. The suspension was centrifuged to completely remove erythrocytes, and the supernatant was subjected to SDS-PAGE and Western blot analysis to examine whether the coagulation factor was activated or not. 7.5 to 15% gradient gel was used, and electrophoresis was performed at a constant current of 20 mA in the presence of 0.1% SDS. Protein bands were stained for 3 hours with a 50% ethanol (v/v)/7% acetic acid solution containing 0.25% (w/v) Coomassie brilliant blue R-250 (CBB). When activated factor IX was detected by SDS-PAGE, immunostaining was performed to confirm that the resulting band was of activated coagulation factor IX. In the immunostaining procedures, the gel subjected to electrophoresis was buffered using Towbin buffer (25 mM Tris-HCl (pH 8.3), 192 mM glycin, 20% (v/v) methanol, 0.1% SDS) for 15 minutes, followed by transferring to a polyvinylidene difluoride (PVDF) membrane under conditions of 15V and 150 mA. […]

[3] = material concentration 1 mM, 30 min at 37° C., control without material = 100.0

| Molecule | Relative activity of the enzyme (%) [1, 3] [%] | other results |
| --- | --- | --- |
| O=S(=O)(F)Cc1ccccc1 [PMSF, reference compound] | 19.2 |  |
| O=C(O)CN(CCN(CC(=O)O)CC(=O)O)CC(=O)O [EDTA, reference compound] | 74.5 | Relative activity of the enzyme (%) ([1]; material concentration 10 mM, 30 min at 37° C., control without material = 100.0): 27.0% |
| c1cnc2c(c1)ccc1cccnc12 [Phenanthroline, reference compound] | 28.8 |  |
| [Cl-].[Na+] [NaCl] |  | Relative activity of the enzyme (%) [1]: 95.5% and 84.3% |
| CC(=O)N[C@@H](CC(C)C)C(=O)N[C@@H](CC(C)C)C(=O)N[C@H](C=O)CCCNC(=N)N [Leupeptin, reference compound] | 78.5 |  |
| [Cl-].[Cl-].[Mg+2] [MgCl2] | 100.5 |  |
| [Ca+2].[Cl-].[Cl-] [CaCl2] | 156.4 |  |
| B1 |  | activation of factor IX by the extract [2]: inhibited; Relative activity of the enzyme (%) ([1]; material concentration 1%, 30 min at 37° C., control without material = 100.0): 65.1% |
